# The NIST ThermoML archive (doi:10.1016/j.tca.2011.02.002)
# ± gives the expanded uncertainty stated by the source.
# Experiments:
# [1] = xn = mol fraction of the nth substance listed; conditions: 101 kPa, Liquid; for mass density: Vibrating tube method
# [2] = excess molar enthalpy (molar enthalpy of mixing); xn = mol fraction of the nth substance listed; conditions: 308.15 K, 101 kPa, Liquid, 2-drop calorimeter (CSC 4600_
smiles,measurement,setting,value
c1ccncc1 [pyridine] + C1CCOCC1,mass density,"[1]; 298.15 K, x2 = 0",978.249 ± 0.3 kg/m3
same,mass density,"[1]; 298.15 K, x2 = 0.0427",973.663 ± 0.32 kg/m3
same,mass density,"[1]; 298.15 K, x2 = 0.1021",967.309 ± 0.35 kg/m3
same,mass density,"[1]; 298.15 K, x2 = 0.1883",958.157 ± 0.39 kg/m3
same,mass density,"[1]; 298.15 K, x2 = 0.2415",952.565 ± 0.42 kg/m3
same,mass density,"[1]; 298.15 K, x2 = 0.2853",948.002 ± 0.45 kg/m3
same,mass density,"[1]; 298.15 K, x2 = 0.3438",941.972 ± 0.48 kg/m3
same,mass density,"[1]; 298.15 K, x2 = 0.3742",938.871 ± 0.5 kg/m3
same,mass density,"[1]; 298.15 K, x2 = 0.4263",933.597 ± 0.53 kg/m3
same,mass density,"[1]; 298.15 K, x2 = 0.4642",929.793 ± 0.56 kg/m3
same,mass density,"[1]; 298.15 K, x2 = 0.5364",922.65 ± 0.6 kg/m3
same,mass density,"[1]; 298.15 K, x2 = 0.5721",919.167 ± 0.62 kg/m3
same,mass density,"[1]; 298.15 K, x2 = 0.6283",913.73 ± 0.66 kg/m3
same,mass density,"[1]; 298.15 K, x2 = 0.6872",908.097 ± 0.69 kg/m3
same,mass density,"[1]; 298.15 K, x2 = 0.7336",903.711 ± 0.72 kg/m3
same,mass density,"[1]; 298.15 K, x2 = 0.7823",899.149 ± 0.76 kg/m3
same,mass density,"[1]; 298.15 K, x2 = 0.8351",894.248 ± 0.79 kg/m3
same,mass density,"[1]; 298.15 K, x2 = 0.8752",890.543 ± 0.82 kg/m3
same,mass density,"[1]; 298.15 K, x2 = 0.9354",885.027 ± 0.86 kg/m3
same,speed of sound,"[1]; 298.15 K, x2 = 0",1417.6 ± 1.1 m/s
same,speed of sound,"[1]; 298.15 K, x2 = 0.0427",1411.9 ± 1.1 m/s
same,speed of sound,"[1]; 298.15 K, x2 = 0.1021",1403.6 ± 1.2 m/s
same,speed of sound,"[1]; 298.15 K, x2 = 0.1883",1391.4 ± 1.3 m/s
same,speed of sound,"[1]; 298.15 K, x2 = 0.2415",1383.7 ± 1.3 m/s
same,speed of sound,"[1]; 298.15 K, x2 = 0.2853",1377.4 ± 1.4 m/s
same,speed of sound,"[1]; 298.15 K, x2 = 0.3438",1368.8 ± 1.4 m/s
same,speed of sound,"[1]; 298.15 K, x2 = 0.3742",1364.2 ± 1.4 m/s
same,speed of sound,"[1]; 298.15 K, x2 = 0.4263",1356.5 ± 1.5 m/s
same,speed of sound,"[1]; 298.15 K, x2 = 0.4642",1350.7 ± 1.5 m/s
same,speed of sound,"[1]; 298.15 K, x2 = 0.5364",1339.8 ± 1.6 m/s
same,speed of sound,"[1]; 298.15 K, x2 = 0.5721",1334.4 ± 1.6 m/s
same,speed of sound,"[1]; 298.15 K, x2 = 0.6283",1325.8 ± 1.7 m/s
same,speed of sound,"[1]; 298.15 K, x2 = 0.6872",1316.9 ± 1.8 m/s
same,speed of sound,"[1]; 298.15 K, x2 = 0.7336",1309.8 ± 1.8 m/s
same,speed of sound,"[1]; 298.15 K, x2 = 0.7823",1302.5 ± 1.8 m/s
same,speed of sound,"[1]; 298.15 K, x2 = 0.8351",1294.4 ± 1.9 m/s
same,speed of sound,"[1]; 298.15 K, x2 = 0.8752",1288.5 ± 1.9 m/s
same,speed of sound,"[1]; 298.15 K, x2 = 0.9354",1279.5 ± 2 m/s
same,mass density,"[1]; 303.15 K, x2 = 0",973.224 ± 0.3 kg/m3
same,mass density,"[1]; 303.15 K, x2 = 0.0427",968.634 ± 0.32 kg/m3
same,mass density,"[1]; 303.15 K, x2 = 0.1021",962.276 ± 0.35 kg/m3
same,mass density,"[1]; 303.15 K, x2 = 0.1883",953.12 ± 0.39 kg/m3
same,mass density,"[1]; 303.15 K, x2 = 0.2415",947.532 ± 0.42 kg/m3
same,mass density,"[1]; 303.15 K, x2 = 0.2853",942.969 ± 0.45 kg/m3
same,mass density,"[1]; 303.15 K, x2 = 0.3438",936.936 ± 0.48 kg/m3
same,mass density,"[1]; 303.15 K, x2 = 0.3742",933.829 ± 0.5 kg/m3
same,mass density,"[1]; 303.15 K, x2 = 0.4263",928.553 ± 0.53 kg/m3
same,mass density,"[1]; 303.15 K, x2 = 0.4642",924.748 ± 0.55 kg/m3
same,mass density,"[1]; 303.15 K, x2 = 0.5364",917.601 ± 0.6 kg/m3
same,mass density,"[1]; 303.15 K, x2 = 0.5721",914.108 ± 0.62 kg/m3
same,mass density,"[1]; 303.15 K, x2 = 0.6283",908.661 ± 0.65 kg/m3
same,mass density,"[1]; 303.15 K, x2 = 0.6872",903.027 ± 0.69 kg/m3
same,mass density,"[1]; 303.15 K, x2 = 0.7336",898.628 ± 0.72 kg/m3
same,mass density,"[1]; 303.15 K, x2 = 0.7823",894.056 ± 0.75 kg/m3
same,mass density,"[1]; 303.15 K, x2 = 0.8351",889.143 ± 0.79 kg/m3
same,mass density,"[1]; 303.15 K, x2 = 0.8752",885.431 ± 0.81 kg/m3
same,mass density,"[1]; 303.15 K, x2 = 0.9354",879.898 ± 0.85 kg/m3
same,speed of sound,"[1]; 303.15 K, x2 = 0",1397.4 ± 1.1 m/s
same,speed of sound,"[1]; 303.15 K, x2 = 0.0427",1391.4 ± 1.1 m/s
same,speed of sound,"[1]; 303.15 K, x2 = 0.1021",1382.9 ± 1.2 m/s
same,speed of sound,"[1]; 303.15 K, x2 = 0.1883",1370.2 ± 1.3 m/s
same,speed of sound,"[1]; 303.15 K, x2 = 0.2415",1362.2 ± 1.3 m/s
same,speed of sound,"[1]; 303.15 K, x2 = 0.2853",1355.6 ± 1.4 m/s
same,speed of sound,"[1]; 303.15 K, x2 = 0.3438",1346.7 ± 1.4 m/s
same,speed of sound,"[1]; 303.15 K, x2 = 0.3742",1342.1 ± 1.4 m/s
same,speed of sound,"[1]; 303.15 K, x2 = 0.4263",1334 ± 1.5 m/s
same,speed of sound,"[1]; 303.15 K, x2 = 0.4642",1328.2 ± 1.5 m/s
same,speed of sound,"[1]; 303.15 K, x2 = 0.5364",1317.1 ± 1.6 m/s
same,speed of sound,"[1]; 303.15 K, x2 = 0.5721",1311.6 ± 1.6 m/s
same,speed of sound,"[1]; 303.15 K, x2 = 0.6283",1302.9 ± 1.7 m/s
same,speed of sound,"[1]; 303.15 K, x2 = 0.6872",1293.9 ± 1.8 m/s
same,speed of sound,"[1]; 303.15 K, x2 = 0.7336",1286.9 ± 1.8 m/s
same,speed of sound,"[1]; 303.15 K, x2 = 0.7823",1279.5 ± 1.8 m/s
same,speed of sound,"[1]; 303.15 K, x2 = 0.8351",1271.5 ± 1.9 m/s
same,speed of sound,"[1]; 303.15 K, x2 = 0.8752",1265.4 ± 1.9 m/s
same,speed of sound,"[1]; 303.15 K, x2 = 0.9354",1256.4 ± 2 m/s
same,mass density,"[1]; 308.15 K, x2 = 0",968.166 ± 0.3 kg/m3
same,mass density,"[1]; 308.15 K, x2 = 0.0427",963.658 ± 0.32 kg/m3
same,mass density,"[1]; 308.15 K, x2 = 0.1021",957.232 ± 0.35 kg/m3
same,mass density,"[1]; 308.15 K, x2 = 0.1883",948.063 ± 0.39 kg/m3
same,mass density,"[1]; 308.15 K, x2 = 0.2415",942.634 ± 0.42 kg/m3
same,mass density,"[1]; 308.15 K, x2 = 0.2853",938.037 ± 0.45 kg/m3
same,mass density,"[1]; 308.15 K, x2 = 0.3438",931.957 ± 0.48 kg/m3
same,mass density,"[1]; 308.15 K, x2 = 0.3742",928.814 ± 0.5 kg/m3
same,mass density,"[1]; 308.15 K, x2 = 0.4263",923.491 ± 0.53 kg/m3
same,mass density,"[1]; 308.15 K, x2 = 0.4642",919.649 ± 0.55 kg/m3
same,mass density,"[1]; 308.15 K, x2 = 0.5364",912.425 ± 0.59 kg/m3
same,mass density,"[1]; 308.15 K, x2 = 0.5721",908.895 ± 0.61 kg/m3
same,mass density,"[1]; 308.15 K, x2 = 0.6283",903.408 ± 0.65 kg/m3
same,mass density,"[1]; 308.15 K, x2 = 0.6872",897.739 ± 0.69 kg/m3
same,mass density,"[1]; 308.15 K, x2 = 0.7336",893.335 ± 0.72 kg/m3
same,mass density,"[1]; 308.15 K, x2 = 0.7823",888.752 ± 0.75 kg/m3
same,mass density,"[1]; 308.15 K, x2 = 0.8351",883.845 ± 0.78 kg/m3
same,mass density,"[1]; 308.15 K, x2 = 0.8752",880.16 ± 0.81 kg/m3
same,mass density,"[1]; 308.15 K, x2 = 0.9354",874.668 ± 0.85 kg/m3
same,speed of sound,"[1]; 308.15 K, x2 = 0",1377.1 ± 1.1 m/s
same,speed of sound,"[1]; 308.15 K, x2 = 0.0427",1370.9 ± 1.1 m/s
same,speed of sound,"[1]; 308.15 K, x2 = 0.1021",1362.3 ± 1.2 m/s
same,speed of sound,"[1]; 308.15 K, x2 = 0.1883",1349.4 ± 1.3 m/s
same,speed of sound,"[1]; 308.15 K, x2 = 0.2415",1341.1 ± 1.3 m/s
same,speed of sound,"[1]; 308.15 K, x2 = 0.2853",1334.3 ± 1.4 m/s
same,speed of sound,"[1]; 308.15 K, x2 = 0.3438",1325.4 ± 1.4 m/s
same,speed of sound,"[1]; 308.15 K, x2 = 0.3742",1320.6 ± 1.4 m/s
same,speed of sound,"[1]; 308.15 K, x2 = 0.4263",1312.5 ± 1.5 m/s
same,speed of sound,"[1]; 308.15 K, x2 = 0.4642",1306.7 ± 1.5 m/s
same,speed of sound,"[1]; 308.15 K, x2 = 0.5364",1295.4 ± 1.6 m/s
same,speed of sound,"[1]; 308.15 K, x2 = 0.5721",1289.8 ± 1.6 m/s
same,speed of sound,"[1]; 308.15 K, x2 = 0.6283",1281.1 ± 1.7 m/s
same,speed of sound,"[1]; 308.15 K, x2 = 0.6872",1271.9 ± 1.7 m/s
same,speed of sound,"[1]; 308.15 K, x2 = 0.7336",1264.7 ± 1.8 m/s
same,speed of sound,"[1]; 308.15 K, x2 = 0.7823",1257.3 ± 1.8 m/s
same,speed of sound,"[1]; 308.15 K, x2 = 0.8351",1249.2 ± 1.9 m/s
same,speed of sound,"[1]; 308.15 K, x2 = 0.8752",1243.1 ± 1.9 m/s
same,speed of sound,"[1]; 308.15 K, x2 = 0.9354",1234.1 ± 2 m/s
same,excess molar enthalpy,[2]; x2 = 0.0552,0.00315 ± 0.000263 kcal/mol
same,excess molar enthalpy,[2]; x2 = 0.1006,0.00626 ± 0.000311 kcal/mol
same,excess molar enthalpy,[2]; x2 = 0.1525,0.0101 ± 0.000335 kcal/mol
same,excess molar enthalpy,[2]; x2 = 0.2014,0.0141 ± 0.000382 kcal/mol
same,excess molar enthalpy,[2]; x2 = 0.2915,0.0215 ± 0.000454 kcal/mol
same,excess molar enthalpy,[2]; x2 = 0.3462,0.0254 ± 0.000502 kcal/mol
same,excess molar enthalpy,[2]; x2 = 0.3871,0.029 ± 0.000526 kcal/mol
same,excess molar enthalpy,[2]; x2 = 0.4217,0.0314 ± 0.00055 kcal/mol
same,excess molar enthalpy,[2]; x2 = 0.4853,0.0347 ± 0.000598 kcal/mol
same,excess molar enthalpy,[2]; x2 = 0.5363,0.0376 ± 0.000621 kcal/mol
same,excess molar enthalpy,[2]; x2 = 0.5802,0.0387 ± 0.000621 kcal/mol
same,excess molar enthalpy,[2]; x2 = 0.6461,0.039 ± 0.000621 kcal/mol
same,excess molar enthalpy,[2]; x2 = 0.6864,0.0391 ± 0.000621 kcal/mol
same,excess molar enthalpy,[2]; x2 = 0.7344,0.0374 ± 0.000621 kcal/mol
same,excess molar enthalpy,[2]; x2 = 0.7856,0.0341 ± 0.000574 kcal/mol
same,excess molar enthalpy,[2]; x2 = 0.8315,0.0298 ± 0.00055 kcal/mol
same,excess molar enthalpy,[2]; x2 = 0.8911,0.0219 ± 0.000454 kcal/mol
same,excess molar enthalpy,[2]; x2 = 0.9347,0.0139 ± 0.000382 kcal/mol
